According to ChEMBL document CHEMBL1142908, “Selective L-nitroargininylaminopyrrolidine and L-nitroargininylaminopiperidine neuronal nitric oxide synthase inhibitors” (Bioorg Med Chem, 2007):
Residues, ends and D or L forms follow the SMILES beside them.

How the values were obtained:
[1] = Selectivity of rat recombinant nNOS over mouse recombinant iNOS
[2] = Selectivity of rat recombinant nNOS over bovine recombinant eNOS
Nitric oxide synthase 1 = Nitric oxide synthase 1 (Rattus norvegicus, UniProt P29476); assay: Inhibition of rat recombinant nNOS expressed in Escherichia coli assessed as nitric oxide production by hemoglobin capture assay
[3] = molecular target: T1, Nitric oxide synthase, inducible (Mus musculus, UniProt P29477); assay: Inhibition of mouse recombinant iNOS expressed in Escherichia coli assessed as nitric oxide production by hemoglobin capture assay
T1 sequence (P29477 whole entry): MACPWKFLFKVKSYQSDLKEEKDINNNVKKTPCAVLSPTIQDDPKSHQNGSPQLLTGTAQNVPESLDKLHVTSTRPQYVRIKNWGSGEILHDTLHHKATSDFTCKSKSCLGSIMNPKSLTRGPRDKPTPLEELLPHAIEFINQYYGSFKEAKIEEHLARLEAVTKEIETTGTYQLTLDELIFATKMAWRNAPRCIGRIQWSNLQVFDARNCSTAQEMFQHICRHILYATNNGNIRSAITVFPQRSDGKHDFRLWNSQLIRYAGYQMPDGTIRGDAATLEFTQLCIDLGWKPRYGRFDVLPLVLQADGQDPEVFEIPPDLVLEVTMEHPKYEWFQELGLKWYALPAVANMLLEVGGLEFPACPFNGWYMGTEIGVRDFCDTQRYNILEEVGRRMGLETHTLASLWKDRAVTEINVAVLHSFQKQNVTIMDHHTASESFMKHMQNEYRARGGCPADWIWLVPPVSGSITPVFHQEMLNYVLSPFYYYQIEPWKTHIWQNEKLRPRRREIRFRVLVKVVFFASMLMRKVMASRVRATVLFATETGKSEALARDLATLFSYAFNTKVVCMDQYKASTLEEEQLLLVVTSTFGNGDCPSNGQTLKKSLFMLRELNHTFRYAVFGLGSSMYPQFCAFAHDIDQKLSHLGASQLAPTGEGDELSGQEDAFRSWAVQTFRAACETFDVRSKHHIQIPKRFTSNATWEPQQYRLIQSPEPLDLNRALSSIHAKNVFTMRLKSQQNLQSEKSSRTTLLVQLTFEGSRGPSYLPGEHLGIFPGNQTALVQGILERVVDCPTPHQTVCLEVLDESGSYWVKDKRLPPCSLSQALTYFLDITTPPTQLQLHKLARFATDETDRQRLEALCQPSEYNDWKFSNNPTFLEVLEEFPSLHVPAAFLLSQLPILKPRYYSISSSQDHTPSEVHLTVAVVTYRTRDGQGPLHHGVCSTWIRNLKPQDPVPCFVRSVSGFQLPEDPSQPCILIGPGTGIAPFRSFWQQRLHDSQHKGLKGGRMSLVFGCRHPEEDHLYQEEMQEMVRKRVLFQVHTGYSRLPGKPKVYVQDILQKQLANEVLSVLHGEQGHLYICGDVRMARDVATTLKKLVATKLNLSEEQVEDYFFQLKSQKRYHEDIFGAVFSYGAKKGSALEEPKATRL

Nitric oxide synthase 3 = molecular target: T2, Nitric oxide synthase 3 (Bos taurus, UniProt P29473); assay: Inhibition of bovine recombinant eNOS expressed in Escherichia coli assessed as nitric oxide production by hemoglobin capture assay
T2 sequence (P29473 whole entry): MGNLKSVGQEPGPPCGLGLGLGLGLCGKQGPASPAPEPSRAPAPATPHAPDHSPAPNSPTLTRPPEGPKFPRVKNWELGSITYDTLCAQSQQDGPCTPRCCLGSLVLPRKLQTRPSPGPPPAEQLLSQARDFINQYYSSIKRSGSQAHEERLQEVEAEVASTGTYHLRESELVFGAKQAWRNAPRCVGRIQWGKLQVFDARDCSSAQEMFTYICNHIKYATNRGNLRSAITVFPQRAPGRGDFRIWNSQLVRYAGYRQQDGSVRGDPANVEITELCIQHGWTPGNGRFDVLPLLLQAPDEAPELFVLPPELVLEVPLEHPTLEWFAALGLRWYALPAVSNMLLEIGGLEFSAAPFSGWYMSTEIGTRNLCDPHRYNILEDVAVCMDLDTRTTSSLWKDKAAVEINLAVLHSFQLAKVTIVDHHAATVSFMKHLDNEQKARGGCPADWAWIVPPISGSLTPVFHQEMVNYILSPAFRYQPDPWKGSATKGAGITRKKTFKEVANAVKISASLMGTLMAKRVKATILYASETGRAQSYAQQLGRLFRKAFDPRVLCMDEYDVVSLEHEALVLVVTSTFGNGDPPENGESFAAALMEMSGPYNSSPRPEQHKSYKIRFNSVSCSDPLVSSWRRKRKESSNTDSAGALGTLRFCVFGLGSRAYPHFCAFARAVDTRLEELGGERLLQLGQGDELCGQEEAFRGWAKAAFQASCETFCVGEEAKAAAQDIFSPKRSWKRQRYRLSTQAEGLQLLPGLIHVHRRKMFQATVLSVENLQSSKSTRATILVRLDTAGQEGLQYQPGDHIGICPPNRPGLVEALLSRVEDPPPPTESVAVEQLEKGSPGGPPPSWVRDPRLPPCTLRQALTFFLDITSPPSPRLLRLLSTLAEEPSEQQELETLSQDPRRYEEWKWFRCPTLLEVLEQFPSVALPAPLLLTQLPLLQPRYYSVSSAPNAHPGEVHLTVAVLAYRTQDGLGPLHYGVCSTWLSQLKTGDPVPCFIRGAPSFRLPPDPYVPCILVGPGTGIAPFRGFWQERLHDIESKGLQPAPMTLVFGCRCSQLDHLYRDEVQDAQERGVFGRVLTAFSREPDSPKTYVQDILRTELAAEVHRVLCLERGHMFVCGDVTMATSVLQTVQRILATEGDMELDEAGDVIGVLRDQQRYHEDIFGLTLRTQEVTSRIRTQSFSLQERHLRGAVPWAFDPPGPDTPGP

Sequence of Nitric oxide synthase 1 (P29476 whole entry): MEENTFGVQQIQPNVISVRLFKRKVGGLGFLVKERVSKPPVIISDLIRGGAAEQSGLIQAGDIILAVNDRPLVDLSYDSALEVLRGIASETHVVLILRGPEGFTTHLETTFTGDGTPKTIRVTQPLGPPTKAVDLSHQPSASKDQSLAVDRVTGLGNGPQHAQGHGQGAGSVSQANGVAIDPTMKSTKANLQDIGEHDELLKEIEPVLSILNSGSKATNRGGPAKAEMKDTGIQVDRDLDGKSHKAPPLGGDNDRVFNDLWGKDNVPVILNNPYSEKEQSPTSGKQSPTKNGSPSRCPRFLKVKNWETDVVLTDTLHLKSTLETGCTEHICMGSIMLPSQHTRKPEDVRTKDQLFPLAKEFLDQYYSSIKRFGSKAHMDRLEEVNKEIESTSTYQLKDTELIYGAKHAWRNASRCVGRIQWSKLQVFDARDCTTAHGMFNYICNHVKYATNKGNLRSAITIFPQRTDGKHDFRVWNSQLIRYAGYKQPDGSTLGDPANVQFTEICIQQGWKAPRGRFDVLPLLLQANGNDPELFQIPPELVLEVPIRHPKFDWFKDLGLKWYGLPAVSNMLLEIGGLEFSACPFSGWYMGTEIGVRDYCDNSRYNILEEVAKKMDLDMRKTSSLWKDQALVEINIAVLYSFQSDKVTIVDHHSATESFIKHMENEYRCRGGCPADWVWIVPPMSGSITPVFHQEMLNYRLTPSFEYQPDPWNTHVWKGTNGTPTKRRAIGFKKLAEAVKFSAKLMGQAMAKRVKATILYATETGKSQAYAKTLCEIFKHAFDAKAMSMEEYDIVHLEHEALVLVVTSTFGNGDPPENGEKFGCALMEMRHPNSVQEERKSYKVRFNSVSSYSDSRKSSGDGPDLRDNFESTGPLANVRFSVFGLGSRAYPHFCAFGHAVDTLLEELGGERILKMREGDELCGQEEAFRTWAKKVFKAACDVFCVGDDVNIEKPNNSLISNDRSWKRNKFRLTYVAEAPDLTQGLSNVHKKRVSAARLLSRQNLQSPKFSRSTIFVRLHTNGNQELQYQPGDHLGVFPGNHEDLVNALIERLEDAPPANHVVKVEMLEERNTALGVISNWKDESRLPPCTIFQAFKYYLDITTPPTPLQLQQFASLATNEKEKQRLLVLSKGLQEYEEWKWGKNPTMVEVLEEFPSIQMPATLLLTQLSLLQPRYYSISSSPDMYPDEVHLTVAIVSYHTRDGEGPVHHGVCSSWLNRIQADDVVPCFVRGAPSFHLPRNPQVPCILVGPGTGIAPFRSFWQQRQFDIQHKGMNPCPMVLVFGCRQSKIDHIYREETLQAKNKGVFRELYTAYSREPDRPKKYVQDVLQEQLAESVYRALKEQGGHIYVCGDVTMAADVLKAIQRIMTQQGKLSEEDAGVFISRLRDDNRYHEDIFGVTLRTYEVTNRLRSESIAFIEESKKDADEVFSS

Work on `N=C(NCCC[C@H](N)C(=O)N[C@@H]1CCCNC1)N[N+](=O)[O-]` yielded a Ratio Ki [1] of 188 and a Ratio Ki [2] of 469.

`NC(=N[N+](=O)[O-])NCCC[C@H](N)C(=O)N[C@@H]1CCNC1` showed a Ki (Nitric oxide synthase 1) of 0.22 µM, a Ki [3] of 55 µM and a Ki (Nitric oxide synthase 3) of 68 µM.

`CN[C@@H](CCCNC(=N)N[N+](=O)[O-])C(=O)N[C@@H]1CCCNC1` gave a Ratio Ki [1] of 107 and a Ratio Ki [2] of 77.

Molecule `CN[C@@H](CCCNC(=N)N[N+](=O)[O-])C(=O)N[C@@H]1CCNC1` has a Ratio Ki [1] of 115 and a Ratio Ki [2] of 148.

`N=C(NCCC[C@H](N)C(=O)NC1CCNCC1)N[N+](=O)[O-]` gave a Ki (Nitric oxide synthase 1) of 0.47 µM, a Ki [3] of 202 µM and a Ki (Nitric oxide synthase 3) of 262 µM. For the same molecule, the Ratio Ki [1] was 430 and the Ratio Ki [2] was 557.

Molecule `CN[C@@H](CCCNC(N)=N[N+](=O)[O-])C(=O)N[C@@H]1CCCNC1` has a Ki (Nitric oxide synthase 1) of 2.26 µM, a Ki [3] of 242 µM and a Ki (Nitric oxide synthase 3) of 174 µM.

Molecule `C[C@H](NC(=O)[C@H](CC(N)=O)NC(=O)[C@@H](N)CC(N)=O)C(=O)O` (H-Asn-Asn-Ala-OH) has a Ki (Nitric oxide synthase 1) of 0.61 µM, a Ki [3] of 4.28 µM and a Ki (Nitric oxide synthase 3) of 0.72 µM. For the same molecule, the Ratio Ki [1] was 7 and the Ratio Ki [2] was 1.2.

Work on `NC(=O)[C@@H]1C[C@@H](NC(=O)[C@@H](N)CCC/N=C(\N)N[N+](=O)[O-])CN1` yielded a Ki (Nitric oxide synthase 1) of 0.33 µM and a Ki [3] of 17 µM.

`N=C(NCCC[C@H](N)C(=O)N[C@H]1CCNC1)N[N+](=O)[O-]` showed a Ratio Ki [1] of 32 and a Ratio Ki [2] of 44.

`CN[C@@H](CCCNC(N)=N[N+](=O)[O-])C(=O)N[C@@H]1CCNC1` gave a Ki (Nitric oxide synthase 1) of 1.08 µM, a Ki [3] of 124 µM and a Ki (Nitric oxide synthase 3) of 160 µM.

With `NC(=N[N+](=O)[O-])NCCC[C@H](N)C(=O)N[C@@H]1CCCNC1` the Ki (Nitric oxide synthase 1) was 0.48 µM, the Ki [3] was 90 µM and the Ki (Nitric oxide synthase 3) was 225 µM.

`N=C(NCCC[C@H](N)C(=O)N[C@@H]1CCNC1)N[N+](=O)[O-]` gave a Ratio Ki [1] of 250 and a Ratio Ki [2] of 309.

With `CN[C@@H](CCCNC(=N)N[N+](=O)[O-])C(=O)N[C@H]1CN[C@H](C(N)=O)C1` the Ki (Nitric oxide synthase 1) was 1.09 µM, the Ki [3] was 65 µM and the Ki (Nitric oxide synthase 3) was 290 µM. It also gave a Ratio Ki [1] of 60 and a Ratio Ki [2] of 266.

With `CN[C@@H](CCCNC(=N)N[N+](=O)[O-])C(=O)NC1CCNCC1` the Ratio Ki [1] was 216 and the Ratio Ki [2] was 48.

Molecule `N=C(NCCC[C@H](N)C(=O)N[C@H]1CCCNC1)N[N+](=O)[O-]` has a Ki (Nitric oxide synthase 1) of 7.62 µM, a Ki [3] of 535 µM and a Ki (Nitric oxide synthase 3) of 221 µM. It also gave a Ratio Ki [1] of 70 and a Ratio Ki [2] of 29.

In the case of `NC(=N[N+](=O)[O-])NCCC[C@H](N)C(=O)N[C@H]1CCNC1`, the Ki (Nitric oxide synthase 1) is reported as 1.76 µM, the Ki [3] is reported as 57 µM and the Ki (Nitric oxide synthase 3) is reported as 77 µM.

`CN[C@@H](CCCNC(N)=N[N+](=O)[O-])C(=O)NC1CCNCC1` showed a Ki (Nitric oxide synthase 1) of 2.38 µM, a Ki [3] of 515 µM and a Ki (Nitric oxide synthase 3) of 114 µM.
